Measured values: patent US20240041830A1, “CIRCULATING BIOMARKERS OF RESPONSE TO PD-1/PD-L1 BLOCKADE AND GSK-3 INHIBITION” (Brown University, priority 2022, published 2024)

Assays:
HCT-116 = assay: Western blot analysis; format: cell-based, human
Method: (§1) Pyroptosis assay. Recombinant Human TNF-α (Cat #300-01A, PeproTech, Rocky Hill, NJ, USA) and Recombinant Human IFN-γ (Cat #300-02, PeproTech, Rocky Hill, NJ, USA) were purchased for use in western blot analysis while rhTRAIL was generated in-house. See Kim et al., J. Biol. Chem., 279, 40044-40052 (2004).
(§2) Western blot analysis. Cells were plated in a 6-well plate and incubated overnight before the spent media was replaced with drugged media. Drug treatment lasted for indicated durations. Protein was extracted using radioimmunoprecipitation (RIPA) assay buffer (Cat #R0278, Sigma-Aldrich, St. Louis, MO, USA) containing cOmplete™, Mini, EDTA-free Protease Inhibitor Cocktail (Cat #4693159001, Roche, Basel, Switzerland) from sub-confluent cells. Denaturing sample buffer was added, samples were boiled at 95° C. for ten minutes, and an equal amount of protein lysate was electrophoresed through NuPAGE™ 4 to 12%, bis-Tris, 1.5 mm, Mini Protein Gels (Invitrogen, Waltham, MA, USA) then transferred to PVDF membranes. The PVDF membrane was blocked with 5% non-fat milk (Sigma-Aldrich, St. Louis, MO, USA) in 1× TTBS. Primary antibodies were incubated with the transferred PVDF membrane in blocking buffer at 4° C. overnight. Secondary antibodies included Goat anti-Rabbit IgG (H+L) Secondary Antibody, HRP (Cat #31460, Invitrogen, Waltham, MA, USA), and Goat anti-Mouse IgG (H+L) Secondary Antibody, HRP (Cat #31430, Invitrogen, Waltham, MA, USA). The signal was detected using Pierce™ ECL Western Blotting Substrate (Cat #32106, Thermo Scientific, Waltham, MA, USA) and a Syngene Imaging System (RRID: SCR_015770).
(§3) Elraglusib uprequlates tumor cell PD-L1 and proapoptotic pathway expression as well as downregulates immunosuppressive/angiogenic protein expression and pro-survival pathways. The inventors performed Western blot analyses on colorectal cancer cells (HCT-116, HT-29) treated with elraglusib over a 72-hour time course. […] The inventors observed increases in PD-L1 expression as the treatment duration increased. To further elucidate the elraglusib-mediated effects on tumor cell survival, the inventors probed for survival factors Bcl-2 and Survivin and noted decreases in protein expression in both cell lines, especially at the later timepoints (forty-eight hours, seventy-two hours). […] HCT116 cells are heterozygous for β-catenin, harboring one wild-type allele and one mutant allele with inactivation of one of the residues phosphorylated by GSK-3β that is frequently mutated in tumors. Kaler, Augenlicht, & Klampfer, PLoS ONE, 7, e45462 (2012). HT-29, KM12C, and SW480 cells harbor APC mutations. Rowan et al., Proc. Natl. Acad. Sci. USA, 97, 3352 (2000).

HT-29 = assay: Western blot analysis; format: cell-based, human
Method: as §1, §2, §3

[1] = Luminex 200 analysis of patient plasma (NCT03678883); format: in vivo, human; settings: eight hours and twenty-four hours after treatment
[2] = as treatment duration increased
[3] = especially forty-eight, seventy-two hours
[4] = low dose, until the 48-hour timepoint

With Cn1cc(C2=C(c3coc4ccc(F)cc34)C(=O)NC2=O)c2cc3c(cc21)OCO3 [elraglusib] the “NF-κB p65 expression” value (HCT-116; 72-hour time course) was “decreased expression”, the PD-L1 expression (HCT-116; [2]) was “increases” and the Mcl-1 protein expression (HCT-116; by the 24-hour timepoint) was “marked decreases”. The Bcl-2 protein expression (HCT-116; [3]) was “decreases”, the Survivin protein expression (HCT-116; [3]) was “decreases” and the “cleaved PARP (cPARP)” value (HCT-116; [4]) was “little to no cleaved PARP”. For the same molecule, the “NF-κB p65 expression” value (HT-29; 72-hour time course) was “decreased expression”, the PD-L1 expression (HT-29; [2]) was “increases” and the Bcl-2 protein expression (HT-29; [3]) was “decreases”. For the same molecule, the Survivin protein expression (HT-29; [3]) was “decreases”, the “cleaved PARP (cPARP)” value (HT-29; [4]) was “little to no cleaved PARP” and the “plasma cytokines, chemokines, growth factors vs baseline” value [1] was “upregulated”.
